According to EP1007530B1, “6-O-SUBSTITUTED ERYTHROMYCIN COMPOUNDS AND METHOD FOR MAKING SAME” (ABBOTT LABORATORIES, priority 1996, dated 1997):

What was measured:
Assay in all cases: In vitro assay of antibacterial activity (agar dilution MIC)
Type in all cases: cell-based
[1] = test system: Micrococcus luteus ATCC 9341; details: BHI agar, 35-37 °C, 20 to 24 hours, unit assumed
Description: (§1) Representative compounds of the present invention were assayed in vitro for antibacterial activity as follows: Twelve petri dishes containing successive aqueous dilutions of the test compound mixed with 10 mL of sterilized Brain Heart Infusion (BHI) agar (Difco 0418-01-5) were prepared. Each plate was inoculated with 1:100 (or 1:10 for slow-growing strains, such as Micrococcus and Streptococcus) dilutions of up to 32 different microorganisms, using a Steers replicator block. The inoculated plates were incubated at 35-37 °C for 20 to 24 hours, In addition, a control plate, using BHI agar containing no test compound, was prepared and incubated at the beginning and end of each test.
(§2) An additional plate containing a compound having known susceptibility patterns for the organisms being tested and belonging to the same antibiotic class as the test compound was also prepared and incubated as a further control, as well as to provide test-to-test comparability. Erythromycin A was used for this purpose.
(§3) After incubation, each plate was visually inspected. The minimum inhibitory concentration (MIC) was defined as the lowest concentration of drug yielding no growth, a slight haze, or sparsely isolated colonies on the inoculum spot as compared to the growth control. […]

Escherichia coli JUHL = details: BHI agar, 35-37 °C, 20 to 24 hours, in µg/mL (unit assumed)
Description: as §1, §2, §3

[2] = test system: Mycobacterium smegmatis ATCC 114; details: BHI agar, 35-37 °C, 20 to 24 hours, unit assumed
Description: as §1, §2, §3

[3] = test system: Pseudomonas aeruginosa 5007; details: BHI agar, 35-37 °C, 20 to 24 hours, unit assumed
Description: as §1, §2, §3

[4] = test system: Staphylococcus epidermidis 3519; details: BHI agar, 35-37 °C, 20 to 24 hours, unit assumed
Description: as §1, §2, §3

[5] = test system: Staphylococcus aureus CMX 553; details: BHI agar, 35-37 °C, 20 to 24 hours, unit assumed
Description: as §1, §2, §3

[6] = test system: Streptococcus pyogenes PIU 2548; details: BHI agar, 35-37 °C, 20 to 24 hours, unit assumed
Description: as §1, §2, §3

[7] = test system: Staphylococcus aureus 1775; details: BHI agar, 35-37 °C, 20 to 24 hours, unit assumed
Description: as §1, §2, §3

[8] = test system: Streptococcus pyogenes 930; details: BHI agar, 35-37 °C, 20 to 24 hours, unit assumed
Description: as §1, §2, §3

[9] = test system: Streptococcus bovis A-5169; details: BHI agar, 35-37 °C, 20 to 24 hours, unit assumed
Description: as §1, §2, §3

[10] = test system: Staphylococcus aureus CMX 642A; details: BHI agar, 35-37 °C, 20 to 24 hours, unit assumed
Description: as §1, §2, §3

Escherichia coli H560 = details: BHI agar, 35-37 °C, 20 to 24 hours, unit assumed
Description: as §1, §2, §3

Escherichia coli DC-2 = details: BHI agar, 35-37 °C, 20 to 24 hours, unit assumed
Description: as §1, §2, §3

[11] = test system: Enterococcus faecium ATCC 8043; details: BHI agar, 35-37 °C, 20 to 24 hours, unit assumed
Description: as §1, §2, §3

[12] = test system: Pseudomonas aeruginosa K799/WT; details: BHI agar, 35-37 °C, 20 to 24 hours, unit assumed
Description: as §1, §2, §3

Escherichia coli SS = details: BHI agar, 35-37 °C, 20 to 24 hours, unit assumed
Description: as §1, §2, §3

[13] = test system: Pseudomonas aeruginosa K799/61; details: BHI agar, 35-37 °C, 20 to 24 hours, unit assumed
Description: as §1, §2, §3

[14] = test system: Pseudomonas aeruginosa DPHD-2862; details: BHI agar, 35-37 °C, 20 to 24 hours, unit assumed
Description: as §1, §2, §3

[15] = test system: Pseudomonas aeruginosa BMH10; details: BHI agar, 35-37 °C, 20 to 24 hours, in µg/mL (unit assumed)
Description: as §1, §2, §3

[16] = test system: Pseudomonas aeruginosa DPHD-5263; details: BHI agar, 35-37 °C, 20 to 24 hours, in µg/mL (unit assumed)
Description: as §1, §2, §3

[17] = test system: Staphylococcus aureus ATCC 6538P; details: BHI agar, 35-37 °C, 20 to 24 hours, unit assumed
Description: as §1, §2, §3

Pseudomonas capacia 2961 = details: BHI agar, 35-37 °C, 20 to 24 hours, in µg/mL (unit assumed)
Description: as §1, §2, §3

[18] = test system: Enterobacter aerogenes ATCC 13048; details: BHI agar, 35-37 °C, 20 to 24 hours, unit assumed
Description: as §1, §2, §3

Candida albicans CCH 442 = details: BHI agar, 35-37 °C, 20 to 24 hours, unit assumed
Description: as §1, §2, §3

[19] = test system: Providencia struartii CMX 640; details: BHI agar, 35-37 °C, 20 to 24 hours, unit assumed
Description: as §1, §2, §3

[20] = test system: Micrococcus luteus ATCC 4698; details: BHI agar, 35-37 °C, 20 to 24 hours, unit assumed
Description: as §1, §2, §3

[21] = test system: Staphylococcus aureus A-5278; details: BHI agar, 35-37 °C, 20 to 24 hours, unit assumed
Description: as §1, §2, §3

[22] = test system: Staphylococcus aureus NCTC10649M; details: BHI agar, 35-37 °C, 20 to 24 hours, unit assumed
Description: as §1, §2, §3

Escherichia coli KNK 437 = details: BHI agar, 35-37 °C, 20 to 24 hours, unit assumed
Description: as §1, §2, §3

[23] = test system: Streptococcus pyogenes EES61; details: BHI agar, 35-37 °C, 20 to 24 hours, unit assumed
Description: as §1, §2, §3

[24] = test system: Streptococcus agalactiae CMX 508; details: BHI agar, 35-37 °C, 20 to 24 hours, unit assumed
Description: as §1, §2, §3

[25] = test system: Actinetobacter calcoaceticus CMX 669; details: BHI agar, 35-37 °C, 20 to 24 hours, unit assumed
Description: as §1
An additional plate containing a compound having known susceptibility patterns for the organisms being tested and belonging to the same antibiotic class as the test compound was also prepared and incubated as a further control, as well as to provide test-to-test comparability.
as §3

[26] = test system: Klebsiella pneumoniae ATCC 8045; details: BHI agar, 35-37 °C, 20 to 24 hours, unit assumed
Description: as §1, §2, §3

| Molecule | MIC [1] | MIC (Escherichia coli JUHL) | MIC [3] | MIC [4] | MIC [5] | MIC [6] | MIC [7] | MIC [8] | MIC [9] | MIC [10] | MIC (Escherichia coli H560) | MIC (Escherichia coli DC-2) | MIC [11] | MIC [12] | MIC (Escherichia coli SS) | MIC [13] | MIC [14] | MIC [15] | MIC [16] | MIC [17] | other results |
| --- | --- | --- | --- | --- | --- | --- | --- | --- | --- | --- | --- | --- | --- | --- | --- | --- | --- | --- | --- | --- | --- |
| CC[C@H]1OC(=O)[C@H](C)[C@@H](O[C@H]2C[C@@](C)(OC)[C@@H](O)[C@H](C)O2)[C@H](C)[C@@H](O[C@@H]2O[C@H](C)C[C@H](N(C)C)[C@H]2O)[C@](C)(OCC=NO)C[C@@H](C)C(=O)[C@H](C)[C@@H](O)[C@]1(C)O [Example 12, Compound of Formula (X): X is =O, R is -CH2-CH=N-OH] | 0.05 µg/mL | 50 | > 100 µg/mL | 0.39 µg/mL | 0.39 µg/mL | 12.5 µg/mL | > 100 µg/mL | > 100 µg/mL | 0.05 µg/mL | 0.39 µg/mL | 25 µg/mL | > 100 µg/mL | 0.1 µg/mL | > 100 µg/mL | 0.78 µg/mL | 1.56 µg/mL | > 100 µg/mL | > 100 | > 100 | 0.39 µg/mL | MIC [2]: 0.78 µg/mL; MIC (Pseudomonas capacia 2961): > 100; MIC [18]: > 100 µg/mL; MIC (Candida albicans CCH 442): > 100 µg/mL; MIC [19]: > 100 µg/mL; MIC [20]: 0.78 µg/mL; MIC [21]: > 100 µg/mL; MIC [22]: 0.39 µg/mL; MIC (Escherichia coli KNK 437): 100 µg/mL; MIC [23]: 0.05 µg/mL; MIC [24]: 0.05 µg/mL; MIC [25]: 12.5 µg/mL |
| Compound of Formula (X): X is =N-OH, R is allyl [Example 1C] | 0.1 µg/mL | 100 | > 100 µg/mL | 0.39 µg/mL | 0.78 µg/mL | 3.1 µg/mL | > 100 µg/mL | > 100 µg/mL | 0.01 µg/mL | 1.56 µg/mL | 100 µg/mL | > 100 µg/mL | 0.2 µg/mL | > 100 µg/mL | 0.78 µg/mL | 6.2 µg/mL | > 100 µg/mL | > 100 | > 100 | 0.78 µg/mL | MIC [2]: 0.2 µg/mL; MIC [26]: > 100 µg/mL; MIC (Pseudomonas capacia 2961): > 100; MIC [18]: > 100 µg/mL; MIC (Candida albicans CCH 442): > 100 µg/mL; MIC [19]: > 100 µg/mL; MIC [20]: 1.56 µg/mL; MIC [21]: > 100 µg/mL; MIC [22]: 0.78 µg/mL; MIC (Escherichia coli KNK 437): > 100 µg/mL; MIC [24]: 0.01 µg/mL; MIC [25]: 50 µg/mL |
| Compound of Formula (XII): X is-=N-O-(1-isopropoxycyclohexyl), R is allyl, R^p is trimethylsilyl [Example 1B] | 0.2 µg/mL | > 100 | > 100 µg/mL | 0.39 µg/mL | 1.56 µg/mL | 6.2 µg/mL | > 100 µg/mL | > 100 µg/mL | 0.02 µg/mL | 1.56 µg/mL | 100 µg/mL | > 100 µg/mL | 0.2 µg/mL | > 100 µg/mL | 3.1 µg/mL | 6.2 µg/mL | > 100 µg/mL | > 100 | > 100 | 0.78 µg/mL | MIC [26]: > 100 µg/mL; MIC (Pseudomonas capacia 2961): > 100; MIC [18]: > 100 µg/mL; MIC (Candida albicans CCH 442): > 100 µg/mL; MIC [19]: > 100 µg/mL; MIC [20]: 3.1 µg/mL; MIC [21]: > 100 µg/mL; MIC [22]: 3.1 µg/mL; MIC (Escherichia coli KNK 437): > 100 µg/mL; MIC [24]: 0.1 µg/mL; MIC [25]: 50 µg/mL |
